Laboratory results as given in PubChem BioAssay (NCI).
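Briefly, cells in 96-well plates were exposed to five compound concentrations for 48 h, and endpoints were estimated by linear interpolation. Here, GI50 denotes the concentration required for 50% inhibition of growth. TGI marks complete inhibition of growth.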

Tests used:
Assay in all cases: NCI tumour cell line growth inhibition, 48 h
K-562 leukemia = test system: K-562 leukemia
IGROV1 ovarian = test system: IGROV1 ovarian
RPMI-8226 leukemia = test system: RPMI-8226 leukemia
MDA-MB-231 breast = test system: MDA-MB-231 breast
SF-539 CNS = test system: SF-539 CNS
SK-MEL-5 melanoma = test system: SK-MEL-5 melanoma
ACHN renal = test system: ACHN renal
SF-268 CNS = test system: SF-268 CNS
COLO 205 colon = test system: COLO 205 colon
SNB-19 CNS = test system: SNB-19 CNS

| SMILES | GI50 (K-562 leukemia) [µM] | TGI (K-562 leukemia) [µM] | GI50 (IGROV1 ovarian) [µM] | TGI (IGROV1 ovarian) [µM] | GI50 (RPMI-8226 leukemia) [µM] | GI50 (MDA-MB-231 breast) [µM] | TGI (MDA-MB-231 breast) [µM] | GI50 (SF-539 CNS) [µM] | TGI (SF-539 CNS) [µM] | GI50 (SK-MEL-5 melanoma) [µM] | TGI (SK-MEL-5 melanoma) [µM] | GI50 (ACHN renal) [µM] | TGI (ACHN renal) [µM] | GI50 (SF-268 CNS) [µM] | TGI (SF-268 CNS) [µM] | GI50 (COLO 205 colon) [µM] | TGI (COLO 205 colon) [µM] | GI50 (SNB-19 CNS) [µM] | TGI (SNB-19 CNS) [µM] | TGI (RPMI-8226 leukemia) [µM] |
| --- | --- | --- | --- | --- | --- | --- | --- | --- | --- | --- | --- | --- | --- | --- | --- | --- | --- | --- | --- | --- |
| Cc1nc([C@H]2CC[C@H]3[C@@H]4CCC5=CC(=O)CC[C@]5(C)[C@H]4CC[C@]23C)cs1 | 4.7 | > 100 | > 40.3 | > 100 | 0.531 | > 26.7 | > 100 | 18.3 | > 100 | 1.45 | > 100 | 7.72 | > 100 | > 27.2 | > 100 | 5.31 | > 100 | > 100 | > 100 | – |
| CC(=O)C1C(=O)NC(=O)C1=O (centres undefined) | – | > 100 | – | > 100 | – | – | – | – | > 100 | – | > 100 | – | > 100 | – | > 100 | – | > 100 | – | > 100 | > 100 |
| O=C(O)/C(Cl)=C(\Cl)C(=O)NC1C2CC3CC(C2)CC1C3 (centres undefined) | – | > 100 | – | > 100 | – | – | – | – | > 100 | – | > 100 | – | > 100 | – | > 100 | – | > 100 | – | > 100 | > 100 |
| O/N=C1/C(=C/c2ccc(Oc3ccccc3)cc2)CCCC1C(NO)c1ccc(Oc2ccccc2)cc1 (centres undefined) | – | > 100 | – | > 100 | – | – | – | – | > 100 | – | 36.7 | – | > 100 | – | > 100 | – | 35.8 | – | > 100 | 76.1 |
| COc1cc(O)c2c(c1)C(=O)C=C(Cl)C2=O | – | > 100 | – | > 100 | – | – | – | – | > 100 | – | > 100 | – | > 100 | – | > 100 | – | > 100 | – | > 100 | > 100 |
| Cc1cc2cn3c4ccc(O)cc4[nH]c(=O)c3c2cc1C | – | 0.329 | – | – | 0.252 | 0.071 | 1.22 | 0.0223 | 0.0601 | 0.0272 | 0.231 | 0.0471 | 1.64 | – | – | 0.174 | 0.927 | 0.0358 | 1.68 | 3.28 |
| Cc1ccccc1C(=O)Oc1ccc(O)cc1 | – | > 100 | – | > 100 | – | – | – | – | > 100 | – | > 100 | – | > 100 | – | > 100 | – | > 100 | – | > 100 | > 100 |
| CC(=O)O[C@H]1CCC2[C@@H]3CCC4=C(O)C(=O)C(C#N)C[C@]4(C)C3CC[C@@]21C (some centres undefined) | – | > 100 | – | > 100 | – | – | – | – | > 100 | – | 71.1 | – | > 100 | – | > 100 | – | 84.4 | – | > 100 | > 100 |
| COC(=O)NC1(NC(=O)OC)NC(=O)c2cc(OC)c(OC)c(OC)c2N1 | – | > 100 | – | > 100 | – | – | > 100 | – | > 100 | – | > 100 | – | > 100 | – | > 100 | – | > 100 | – | > 100 | – |
| CCOC(=O)C(=O)Nc1ccc(Cl)cc1C | – | > 100 | – | > 100 | – | – | – | – | > 100 | – | > 100 | – | > 100 | – | > 100 | – | > 100 | – | > 100 | > 100 |
| O=S(=O)(SCc1ccccc1)C(c1ccccc1)c1ccccc1 | – | > 100 | – | > 100 | – | – | – | – | 43.1 | – | 51.8 | – | > 100 | – | > 100 | – | 36.8 | – | > 100 | 85.6 |
| COc1cc2c3c(n(CCCNCCCNCCCNCCCN)c(=O)c2cc1OC)-c1cc2c(cc1C3=O)OCO2 | 2.05 | 5.22 | 3.72 | > 100 | – | 2.43 | 7.79 | – | – | – | – | 3.1 | 12 | 1.7 | 4.33 | 1.49 | > 100 | 2.23 | 15.4 | – |
| Cc1nc(-c2ccccc2)cc2c1c(=O)oc1ccccc12 | – | > 100 | – | > 100 | – | – | – | – | > 100 | – | > 100 | – | > 100 | – | > 100 | – | > 100 | – | > 100 | > 100 |
| CCN1C2=NCCN2S(=O)(=O)c2ccccc21 | – | > 100 | – | > 100 | – | – | > 100 | – | > 100 | – | > 100 | – | > 100 | – | > 100 | – | > 100 | – | > 100 | – |
| CN(CCc1ccccn1)c1nc(=[N+](C)C)ss1 | – | > 100 | – | > 100 | – | – | – | – | > 100 | – | > 100 | – | > 100 | – | > 100 | – | > 100 | – | > 100 | > 100 |
| OC(COc1ccc(F)cc1)Cn1cnc2c(Cl)ncnc21 (centres undefined) | – | – | 47.4 | > 100 | 39.7 | 64.7 | > 100 | > 100 | > 100 | 81.4 | > 100 | 62.4 | > 100 | 97.4 | > 100 | > 100 | > 100 | > 100 | > 100 | > 100 |
| CN(/N=C/c1cccc2cccnc12)c1ccc([N+](=O)[O-])cc1 | – | > 100 | – | > 100 | – | – | – | – | > 100 | – | > 100 | – | > 100 | – | > 100 | – | > 100 | – | > 100 | > 100 |
| O=C(Cc1nc2ccccc2s1)C(=O)Nc1cccc(Cl)c1 | – | > 100 | – | > 100 | – | – | – | – | > 100 | – | > 100 | – | > 100 | – | > 100 | – | > 100 | – | > 100 | > 100 |
| O=C(/C=C/C=C/c1c(C2CC2)nc2ccccc2c1-c1ccc(F)cc1)c1cccs1 | – | – | 1.59 | > 100 | – | 2.58 | > 100 | 2.39 | 6.65 | 1.34 | 2.74 | 1.34 | 3.86 | 3.35 | > 100 | – | – | 4.05 | > 100 | – |
| CN(CC#N)C1CCCC[C@H]1O (some centres undefined) | – | > 100 | – | > 100 | – | – | – | – | > 100 | – | > 100 | – | > 100 | – | > 100 | – | > 100 | – | > 100 | > 100 |
| COc1ccc(N/N=C(\CCN(C)C)c2ccccc2)cc1 | – | 7.31 | – | 17.8 | – | – | – | – | 3.69 | – | 21.2 | – | 4.84 | – | > 100 | – | 7.84 | – | 14.5 | 7.5 |
